The values that follow come from US20200239530A1, “COMPOUNDS AND METHODS OF MODULATING PROTEIN DEGRADATION” (Vividion Therapeutics, Inc., priority 2017, published 2020).

Test in all cases: Cysteine liganding, probe competition
What all share (assay type): binding

In assay [1] the target is T1, HNRPLL Heterogeneous nuclear ribonucleoprotein L-like (Homo sapiens, UniProt Q8WVV9).
T1 construct: Cells were resuspended in cold PBS on ice and sonicated with a probe sonicator to achieve lysis; endogenous in cells
Conditions: HNRPLL Res# 464, uniprot Q8WVV9. The method in brief:
(§1)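 Lysates from probe-sonicated cells in PBS (5 mg/ml proteome) were exposed to compound for 1 hr at 25° C, then labelled with desthiobiotin iodoacetamide probe (10 mM stock) for 1 hr at 25° C. Probe-tagged peptides were streptavidin-enriched after trypsin digestion.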

Assay [2] has as its target T2, L3MBTL3 Lethal(3)malignant brain tumor-like protein 3 (Homo sapiens, UniProt Q96JM7).
T2 construct: Cells were resuspended in cold PBS on ice and sonicated with a probe sonicator to achieve lysis; endogenous in cells
To be noted: L3MBTL3 Res# 233, uniprot Q96JM7. A digest of the protocol:
as §1

The target of assay [3] is T3, RNF213 E3 ubiquitin-protein ligase RNF213 (Homo sapiens, UniProt Q63HN8).
T3 construct: Cells were resuspended in cold PBS on ice and sonicated with a probe sonicator to achieve lysis; endogenous in cells
The method in brief: as §1

The target in assay [4] is T4, SPAG5 Sperm-associated antigen 5 (Homo sapiens, UniProt Q96R06).
T4 construct: Cells were resuspended in cold PBS on ice and sonicated with a probe sonicator to achieve lysis; endogenous in cells
Conditions: SPAG5 Res# 382, uniprot Q96R06. The method in brief:
as §1

In assay [5] the target is T5, SRRM2 Serine/arginine repetitive matrix protein 2 (Homo sapiens, UniProt Q9UQ35).
T5 construct: Cells were resuspended in cold PBS on ice and sonicated with a probe sonicator to achieve lysis; endogenous in cells
A digest of the protocol:
as §1

Assay [6] addresses T6, TRIP12 E3 ubiquitin-protein ligase TRIP12 (Homo sapiens, UniProt Q14669).
T6 construct: Cells were resuspended in cold PBS on ice and sonicated with a probe sonicator to achieve lysis; endogenous in cells
To be noted: TRIP12 Res# 1959, uniprot Q14669. A digest of the protocol:
as §1

Assay [7] has as its target T7, UBE4A Ubiquitin conjugation factor E4 A (Homo sapiens, UniProt Q14139).
T7 construct: Cells were resuspended in cold PBS on ice and sonicated with a probe sonicator to achieve lysis; endogenous in cells
Conditions: UBE4A Res# 79, uniprot Q14139. The method in brief:
as §1

Assay [8] addresses T8, VDAC3 Voltage-dependent anion-selective channel protein (Homo sapiens, UniProt Q9Y277).
T8 construct: Cells were resuspended in cold PBS on ice and sonicated with a probe sonicator to achieve lysis; endogenous in cells
To be noted: VDAC3 Res# 229, uniprot Q9Y277. The method in brief:
as §1

Assay [9] concerns the target T9, ZC3HC1 Nuclear-interacting partner of ALK (Homo sapiens, UniProt Q86WB0).
T9 construct: Cells were resuspended in cold PBS on ice and sonicated with a probe sonicator to achieve lysis; endogenous in cells
Conditions: ZC3HC1 Res# 406, uniprot Q86WB0. A digest of the protocol:
as §1

Assay [10] deals with T10, MAP1B Microtubule-associated protein 1B (Homo sapiens, UniProt P46821).
T10 construct: Cells were resuspended in cold PBS on ice and sonicated with a probe sonicator to achieve lysis; endogenous in cells
A digest of the protocol: as §1

Assay [11] has as its target T11, RNF2 E3 ubiquitin-protein ligase RING2 (Homo sapiens, UniProt Q99496).
T11 construct: Cells were resuspended in cold PBS on ice and sonicated with a probe sonicator to achieve lysis; endogenous in cells
T11 sequence (Q99496 1-336): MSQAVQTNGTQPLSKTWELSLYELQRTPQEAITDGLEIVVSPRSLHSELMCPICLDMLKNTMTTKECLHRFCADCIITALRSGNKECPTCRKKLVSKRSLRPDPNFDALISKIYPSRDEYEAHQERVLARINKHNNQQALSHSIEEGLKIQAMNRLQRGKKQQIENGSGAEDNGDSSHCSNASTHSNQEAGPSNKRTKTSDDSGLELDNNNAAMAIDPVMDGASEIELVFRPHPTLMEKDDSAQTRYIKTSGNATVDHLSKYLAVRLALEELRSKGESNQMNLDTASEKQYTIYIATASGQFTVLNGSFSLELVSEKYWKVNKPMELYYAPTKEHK
The method in brief: as §1

T10 sequence (P46821 whole entry): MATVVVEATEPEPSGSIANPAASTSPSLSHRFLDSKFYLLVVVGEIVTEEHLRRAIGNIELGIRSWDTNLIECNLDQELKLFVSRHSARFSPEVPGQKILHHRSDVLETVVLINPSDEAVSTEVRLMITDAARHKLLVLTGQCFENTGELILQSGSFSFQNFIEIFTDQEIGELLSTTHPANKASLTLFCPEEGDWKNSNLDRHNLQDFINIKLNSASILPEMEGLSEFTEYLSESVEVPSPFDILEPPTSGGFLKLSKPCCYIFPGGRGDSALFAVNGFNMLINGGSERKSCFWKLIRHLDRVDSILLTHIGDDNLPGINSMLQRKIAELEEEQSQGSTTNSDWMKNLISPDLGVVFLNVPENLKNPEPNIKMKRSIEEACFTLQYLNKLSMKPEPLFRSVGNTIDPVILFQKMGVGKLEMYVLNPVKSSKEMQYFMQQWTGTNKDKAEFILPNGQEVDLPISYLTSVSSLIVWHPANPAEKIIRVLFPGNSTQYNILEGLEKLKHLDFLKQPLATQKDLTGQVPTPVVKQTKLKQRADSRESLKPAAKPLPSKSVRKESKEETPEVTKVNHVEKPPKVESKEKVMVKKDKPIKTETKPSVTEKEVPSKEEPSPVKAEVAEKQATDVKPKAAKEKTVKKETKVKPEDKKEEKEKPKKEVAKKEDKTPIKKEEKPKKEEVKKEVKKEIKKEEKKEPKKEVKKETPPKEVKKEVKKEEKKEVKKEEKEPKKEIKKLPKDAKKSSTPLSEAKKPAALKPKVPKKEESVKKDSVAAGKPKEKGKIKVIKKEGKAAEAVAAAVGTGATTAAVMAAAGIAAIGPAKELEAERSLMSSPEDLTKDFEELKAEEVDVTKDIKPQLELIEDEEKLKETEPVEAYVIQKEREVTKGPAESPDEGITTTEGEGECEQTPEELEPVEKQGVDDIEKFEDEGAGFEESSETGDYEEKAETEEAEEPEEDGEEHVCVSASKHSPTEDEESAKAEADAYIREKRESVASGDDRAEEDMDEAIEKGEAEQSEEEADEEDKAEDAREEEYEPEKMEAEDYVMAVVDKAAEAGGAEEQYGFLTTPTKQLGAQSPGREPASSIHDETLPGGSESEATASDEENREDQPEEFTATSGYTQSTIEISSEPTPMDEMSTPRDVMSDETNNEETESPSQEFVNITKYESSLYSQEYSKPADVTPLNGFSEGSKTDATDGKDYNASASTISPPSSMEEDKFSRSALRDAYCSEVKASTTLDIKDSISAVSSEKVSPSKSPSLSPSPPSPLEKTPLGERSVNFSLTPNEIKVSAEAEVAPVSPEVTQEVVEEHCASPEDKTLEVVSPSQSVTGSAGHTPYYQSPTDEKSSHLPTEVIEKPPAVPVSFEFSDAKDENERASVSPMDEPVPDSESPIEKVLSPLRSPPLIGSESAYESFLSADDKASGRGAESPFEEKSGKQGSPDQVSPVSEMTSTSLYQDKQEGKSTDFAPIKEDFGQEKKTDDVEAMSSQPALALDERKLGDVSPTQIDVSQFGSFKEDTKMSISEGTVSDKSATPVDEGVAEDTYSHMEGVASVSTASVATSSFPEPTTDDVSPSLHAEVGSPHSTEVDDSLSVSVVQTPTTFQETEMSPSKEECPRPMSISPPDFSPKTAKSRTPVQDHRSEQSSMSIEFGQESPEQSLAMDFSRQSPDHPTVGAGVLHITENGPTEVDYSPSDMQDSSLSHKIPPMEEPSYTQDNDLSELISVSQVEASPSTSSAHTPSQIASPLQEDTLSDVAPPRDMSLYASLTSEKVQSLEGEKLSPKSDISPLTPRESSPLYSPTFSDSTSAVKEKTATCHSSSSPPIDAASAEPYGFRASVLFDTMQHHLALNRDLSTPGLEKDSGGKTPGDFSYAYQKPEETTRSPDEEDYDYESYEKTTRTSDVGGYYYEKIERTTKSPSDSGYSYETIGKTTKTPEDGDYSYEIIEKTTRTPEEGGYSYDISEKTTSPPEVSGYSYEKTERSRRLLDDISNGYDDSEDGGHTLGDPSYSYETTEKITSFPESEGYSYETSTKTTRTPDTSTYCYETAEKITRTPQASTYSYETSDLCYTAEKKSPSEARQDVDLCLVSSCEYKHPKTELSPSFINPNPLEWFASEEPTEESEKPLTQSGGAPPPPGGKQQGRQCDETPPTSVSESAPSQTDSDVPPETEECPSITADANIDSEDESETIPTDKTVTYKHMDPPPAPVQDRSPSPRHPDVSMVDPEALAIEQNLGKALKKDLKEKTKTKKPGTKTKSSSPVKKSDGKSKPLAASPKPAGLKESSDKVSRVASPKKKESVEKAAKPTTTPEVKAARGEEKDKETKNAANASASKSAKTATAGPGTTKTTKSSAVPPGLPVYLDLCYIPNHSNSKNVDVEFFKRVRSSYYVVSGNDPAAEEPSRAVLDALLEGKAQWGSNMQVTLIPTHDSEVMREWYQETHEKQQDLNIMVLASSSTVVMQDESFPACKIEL
T6 sequence (Q14669 with tags, fused parts or gaps): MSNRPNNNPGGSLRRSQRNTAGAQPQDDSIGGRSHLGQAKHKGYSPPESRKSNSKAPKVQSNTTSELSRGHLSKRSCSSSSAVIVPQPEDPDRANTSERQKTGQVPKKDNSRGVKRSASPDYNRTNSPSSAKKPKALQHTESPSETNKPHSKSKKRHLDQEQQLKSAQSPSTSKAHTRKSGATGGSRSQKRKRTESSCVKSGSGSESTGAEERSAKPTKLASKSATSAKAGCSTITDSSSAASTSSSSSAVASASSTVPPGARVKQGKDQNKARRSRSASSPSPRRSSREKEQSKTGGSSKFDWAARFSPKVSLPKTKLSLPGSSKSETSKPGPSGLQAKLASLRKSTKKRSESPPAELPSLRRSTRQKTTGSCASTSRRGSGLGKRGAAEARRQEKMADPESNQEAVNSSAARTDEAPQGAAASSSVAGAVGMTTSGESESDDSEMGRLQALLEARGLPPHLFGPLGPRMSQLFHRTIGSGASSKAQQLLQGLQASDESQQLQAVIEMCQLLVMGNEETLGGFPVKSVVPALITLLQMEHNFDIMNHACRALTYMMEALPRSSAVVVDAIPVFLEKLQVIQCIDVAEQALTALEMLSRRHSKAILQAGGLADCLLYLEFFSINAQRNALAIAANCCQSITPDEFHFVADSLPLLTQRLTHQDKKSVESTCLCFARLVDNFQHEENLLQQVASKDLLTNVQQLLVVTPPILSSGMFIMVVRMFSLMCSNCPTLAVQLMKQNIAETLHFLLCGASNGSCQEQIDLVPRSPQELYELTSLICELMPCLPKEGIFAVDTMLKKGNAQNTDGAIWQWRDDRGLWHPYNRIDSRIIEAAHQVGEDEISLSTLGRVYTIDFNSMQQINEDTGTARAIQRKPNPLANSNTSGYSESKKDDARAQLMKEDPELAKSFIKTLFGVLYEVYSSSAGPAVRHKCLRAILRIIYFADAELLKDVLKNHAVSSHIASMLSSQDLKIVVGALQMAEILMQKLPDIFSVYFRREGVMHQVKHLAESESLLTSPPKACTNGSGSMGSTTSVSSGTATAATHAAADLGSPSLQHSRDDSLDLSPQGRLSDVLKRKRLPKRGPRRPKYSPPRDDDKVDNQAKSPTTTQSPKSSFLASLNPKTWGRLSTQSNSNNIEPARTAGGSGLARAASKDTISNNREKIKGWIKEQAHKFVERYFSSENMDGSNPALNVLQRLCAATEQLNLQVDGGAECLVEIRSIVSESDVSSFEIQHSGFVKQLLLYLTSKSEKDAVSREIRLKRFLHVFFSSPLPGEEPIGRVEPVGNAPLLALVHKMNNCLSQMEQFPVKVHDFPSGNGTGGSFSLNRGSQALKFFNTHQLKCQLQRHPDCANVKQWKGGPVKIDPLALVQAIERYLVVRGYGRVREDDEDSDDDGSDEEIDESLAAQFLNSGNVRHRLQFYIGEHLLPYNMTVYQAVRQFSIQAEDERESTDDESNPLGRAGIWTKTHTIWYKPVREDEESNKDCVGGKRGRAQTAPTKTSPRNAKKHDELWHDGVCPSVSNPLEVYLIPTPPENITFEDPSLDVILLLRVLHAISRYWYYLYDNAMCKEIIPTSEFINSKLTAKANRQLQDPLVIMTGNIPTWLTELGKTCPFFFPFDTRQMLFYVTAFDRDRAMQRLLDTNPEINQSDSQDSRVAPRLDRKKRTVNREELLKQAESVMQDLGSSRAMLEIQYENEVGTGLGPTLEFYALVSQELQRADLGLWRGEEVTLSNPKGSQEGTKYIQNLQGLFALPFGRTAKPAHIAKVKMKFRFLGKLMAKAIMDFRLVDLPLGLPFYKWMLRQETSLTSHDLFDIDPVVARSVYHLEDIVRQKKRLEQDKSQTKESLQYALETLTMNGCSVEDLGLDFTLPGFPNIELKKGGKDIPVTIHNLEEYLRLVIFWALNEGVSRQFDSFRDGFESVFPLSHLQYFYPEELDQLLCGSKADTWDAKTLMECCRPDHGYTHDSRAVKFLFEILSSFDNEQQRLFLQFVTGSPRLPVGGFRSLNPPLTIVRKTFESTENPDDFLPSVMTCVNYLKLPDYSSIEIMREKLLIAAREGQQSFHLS
T8 sequence (Q9Y277 whole entry): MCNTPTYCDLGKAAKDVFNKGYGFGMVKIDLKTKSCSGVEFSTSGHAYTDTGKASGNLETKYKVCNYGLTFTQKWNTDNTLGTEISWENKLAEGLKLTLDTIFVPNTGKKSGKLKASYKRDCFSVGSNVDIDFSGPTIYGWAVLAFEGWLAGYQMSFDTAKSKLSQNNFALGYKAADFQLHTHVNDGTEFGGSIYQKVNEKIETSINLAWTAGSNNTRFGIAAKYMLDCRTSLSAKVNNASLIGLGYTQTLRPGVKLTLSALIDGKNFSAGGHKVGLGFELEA

Turning to `COc1ccc2c(c1)CCCN2C(=O)CCl` [KB02], the Liganded result in assay [1] is “YES”; in assay [2] it was “YES”; in assay [3] (RNF213 Res# 1510, uniprot Q63HN8) it was “YES”; in assay [3] (RNF213 Res# 4258, uniprot Q63HN8), “YES”; in [3] (RNF213 Res# 4407, uniprot Q63HN8), “YES”; in assay [4], “YES”. The Liganded entry in [5] (SRRM2 Res# 1029, uniprot Q9UQ35) is listed as “YES”; in [5] (SRRM2 Res# 1036, uniprot Q9UQ35), “YES”; in assay [6] it was “YES”; in assay [7], “YES”; in assay [8], “YES”; in assay [9], “YES”.

Regarding `O=C(CCl)Nc1cc(C(F)(F)F)cc(C(F)(F)F)c1` [KBO3], the Liganded entry in [10] (MAP1B Res# 382, uniprot P46821) is recorded as “YES”; in assay [11] (RNF2 Res# 54, uniprot Q99496), “YES”. The 100 ave is 37.5 in assay [10] (uniprot P46821) and 0.5 in assay [11] (uniprot Q99496). Further, the 500 ave was determined as 75.17 in [10] (uniprot P46821) and 76.8 in [11] (uniprot Q99496). The “500 Max” value worked out at 75.17 in assay [10] (uniprot P46821, in % (unit assumed)) and 76.8 in assay [11] (uniprot Q99496). Also, the 100 Max in assay [10] (uniprot P46821, unit assumed) is 37.5%; in assay [11] (uniprot Q99496), 18.1.
